# Assay results as given in US8258114B2, “Modulation of glucose-6-phosphatase translocase expression” (Isis Pharmaceuticals, Inc., priority 2004, dated 2012).
# Like-named read-outs stand apart in the source and are kept apart here.
# Legend:
# db/db mice = assay: Oral glucose tolerance test in db/db mice (Table 10); format: in vivo, mouse
# Protocol: (§1) The mice described in Example 11 were evaluated for performance on glucose tolerance tests after the 6th dose of saline or antisense oligonucleotides. Through measurement of glucose levels following the administration of a bolus of glucose, tolerance tests assess the physiological response to a glucose challenge.
# (§2) Oral glucose tolerance tests (OGTT) were performed during week 3 of treatment with saline, ISIS 116847 (targeted to PTEN, SEQ ID NO: 143), ISIS 149008 (SEQ ID NO: 141), ISIS 148985 (SEQ ID NO: 118), or ISIS 141923 (SEQ ID NO: 144). To provide a baseline glucose level, fasted blood glucose levels were measured before the challenge. Glucose was administered by oral gavage via an 18 g gavage needle at a dose of 1 g/kg. Plasma glucose levels were measured for 30, 60, 90 and 120 minutes post-challenge using an Ascencia Glucometer Elite XL (Bayer, Tarrytown, N.Y.).
# The results are presented in Table 10 as the average plasma glucose level (in mg/dL) per time point from each treatment group (n=7).
# [1] = mouse, in vivo, sc, 25 mg/kg
# Protocol: Seven-week old male C57B1/6J-Lepr db/db mice (Jackson Laboratory, Bar Harbor, Me.) were fed a diet with a fat content of about 14% and were subcutaneously injected with one or more of the oligomeric compounds of the invention or a control compound at a dose of 25 mg/kg two times per week. Glucose-6-phosphatase translocase antisense oligonucleotides used were ISIS 148985 (SEQ ID NO: 118) and ISIS 149008 (SEQ ID NO: 141). ISIS 116847 (SEQ ID NO: 143), targeted to mouse PTEN, was used as a positive control. The scrambled control oligonucleotide ISIS 141923 ([…], incorporated herein as SEQ ID NO: 144) served as a negative control along with saline-injected animals. ISIS 141923 and ISIS 116847 are chimeric oligonucleotides (“gapmers”) 20 nucleotides in length, composed of a central “gap” region consisting of 10 2′-deoxynucleotides, which is flanked on both sides (5′ and 3′) by five-nucleotide “wings”. The wings are composed of 2′-O-(2-methoxyethyl) nucleotides, also known as 2′-MOE nucleotides. The internucleoside (backbone) linkages are phosphorothioate throughout the oligonucleotide. All cytidine residues are 5-methylcytidines.
# Patients with the human glycogen storage disease type 1b have mutations in the glucose-6-phosphatase translocase gene. Because one manifestation of these mutations is a defect in hepatic glycogen […] leading to glycogen accumulation in the liver, the db/db mice were further evaluated at the end of the treatment period for liver glycogen stores. Tissue glycogen was measured using the Glucose Trinder Reagent (Sigma-Aldrich, St. Louis, Mo.). Results are presented as the average level from 5 animals per treatment. Glycogen levels of mice treated with saline alone were approximately 46 mg/g of tissue. Levels in mice treated with the positive control antisense compound ISIS 116847 had decreased levels of approximately 30 mg/g. Mice treated with the scrambled control compound ISIS 141923 had levels more similar to saline control of approximately 39 mg/g. Mice treated with ISIS 149008 or 148985, the antisense inhibitors of glucose-6-phosphatase translocase, had glycogen levels of approximately 38 mg/g and 37 mg/g, respectively.
# ob/ob mice = assay: Oral glucose tolerance test in ob/ob mice (Table 6); format: in vivo, mouse; settings: 25 mg/kg twice weekly; for plasma glucose, OGTT: after 6th dose
# Protocol: as §1, with “7” for “11”
# as §2, with “during the third” for “during”, “week” for “week 3”, “ISIS” for “ISIS 149008 (SEQ ID NO: 141), ISIS”, “149008” for “141923”, “141).” for “144).”
# The results are presented in Table 6 as the average result (plasma glucose in mg/dL) from each treatment group (n=7). Saline-treated mice served as the control to which glucose levels were compared.
# [2] = mouse, in vivo, sc, 25 mg/kg; remark: listed apart in the source
# Protocol: Seven-week old male C57B1/6J-Lep ob/ob mice (Jackson Laboratory, Bar Harbor, Me.) were fed a diet with a fat content of about 22% and were subcutaneously injected with oligonucleotides at a dose of 25 mg/kg two times per week. A total of eight doses were administered. Glucose-6-phosphatase translocase antisense oligonucleotides used were ISIS 148985 (SEQ ID NO: 118) and ISIS 149008 (SEQ ID NO: 141). ISIS 116847 ([…]; incorporated herein as SEQ ID NO: 143), targeted to mouse PTEN, was used as a positive control. Saline-injected animals served as negative controls. Animals were sacrificed 48 hours after the last dose of oligonucleotide was administered, and liver triglycerides, liver glycogen, and target reduction in liver were measured.
# Hepatic steatosis, or buildup of lipids in the liver, was assessed by measuring the liver triglyceride content. Tissue triglycerides were measured with a Triglyceride GPO assay from Roche Diagnostics (Indianapolis, Ind.). Data are presented as averages from 5 animals per treatment group. Triglycerides were approximately 178 mg/g for saline treated mice, 162 mg/g for ISIS 149008-treated mice, 168 mg/g for ISIS 148985-treated mice, and 187 mg/g for ISIS 116847 (PTEN)-treated mice. Thus liver triglycerides were not increased in antisense-treated animals.
# Tissue glycogen was measured using the Glucose Trinder Reagent (Sigma-Aldrich, St. Louis, Mo.). Glycogen levels of mice treated with saline alone were approximately 31 mg/g of tissue. Levels in mice treated with the positive control antisense compound ISIS 116847, targeted to PTEN, had levels of approximately 25 mg/g. Mice treated with ISIS 149008 or 148985, the antisense inhibitors of glucose-6-phosphatase translocase, had glycogen levels of approximately 31 mg/g and 30 mg/g, respectively.
# [3] = 25 mg/kg twice weekly, week 3, 0 min post-glucose challenge (fasted)
# [4] = 25 mg/kg twice weekly, week 3, 30 min
# [5] = 25 mg/kg twice weekly, week 3, 60 min
# [6] = 25 mg/kg twice weekly, week 3, 90 min
# [7] = 25 mg/kg twice weekly, week 3, 120 min
# [8] = 0 min post-glucose challenge (fasted)
Sequence,"plasma glucose, OGTT (db/db mice; [3])","plasma glucose, OGTT (db/db mice; [4])","plasma glucose, OGTT (db/db mice; [5])","plasma glucose, OGTT (db/db mice; [6])","plasma glucose, OGTT (db/db mice; [7])",Liver glycogen levels [1],"plasma glucose, OGTT (ob/ob mice; [8])","plasma glucose, OGTT (ob/ob mice; 30 min post-glucose challenge)","plasma glucose, OGTT (ob/ob mice; 60 min post-glucose challenge)","plasma glucose, OGTT (ob/ob mice; 90 min post-glucose challenge)","plasma glucose, OGTT (ob/ob mice; 120 min post-glucose challenge)",Liver Triglycerides [2],Liver glycogen levels [2],other results
"CCTTCCCTGAAGGTTCCTCC (chemistry not given here) [ISIS 141923, scrambled control oligonucleotide, negative control, reference compound]",284 mg/dL,522 mg/dL,445 mg/dL,338 mg/dL,339 mg/dL,approximately 39 mg/g,,,,,,,,
"CTGCTAGCCTCTGGATTTGA (chemistry not given here) [ISIS 116847, positive control oligonucleotide targeted to mouse PTEN, reference compound]",181 mg/dL,441 mg/dL,367 mg/dL,305 mg/dL,286 mg/dL,approximately 30 mg/g,286 mg/dL,290 mg/dL,238 mg/dL,229 mg/dL,194 mg/dL,~187 mg/g,approximately 25 mg/g,
GCTCCATAGCGAGGACTCGA (chemistry not given here) [ISIS 148985],230 mg/dL,494 mg/dL,445 mg/dL,335 mg/dL,355 mg/dL,~37 mg/g,293 mg/dL,489 mg/dL,433 mg/dL,331 mg/dL,305 mg/dL,~168 mg/g,~30 mg/g,
TATACAAGTCGGTTTGCCCT (chemistry not given here) [ISIS 149008],227 mg/dL,462 mg/dL,326 mg/dL,272 mg/dL,231 mg/dL,approximately 38 mg/g,237 mg/dL,372 mg/dL,276 mg/dL,238 mg/dL,214 mg/dL,~162 mg/g,approximately 31 mg/g,"plasma glucose, OGTT (db/db mice; 6 mg/kg twice weekly, week 3, 0 min (fasted)): 204 mg/dL; plasma glucose, OGTT (db/db mice; 6 mg/kg twice weekly, week 3, 30 min): 518 mg/dL; plasma glucose, OGTT (db/db mice; 6 mg/kg twice weekly, week 3, 60 min): 468 mg/dL; plasma glucose, OGTT (db/db mice; 6 mg/kg twice weekly, week 3, 90 min): 377 mg/dL; plasma glucose, OGTT (db/db mice; 6 mg/kg twice weekly, week 3, 120 min): 330 mg/dL; plasma glucose, OGTT (db/db mice; 12.5 mg/kg twice weekly, week 3, 0 min (fasted)): 152 mg/dL; plasma glucose, OGTT (db/db mice; 12.5 mg/kg twice weekly, week 3, 30 min): 529 mg/dL; plasma glucose, OGTT (db/db mice; 12.5 mg/kg twice weekly, week 3, 60 min): 427 mg/dL; plasma glucose, OGTT (db/db mice; 12.5 mg/kg twice weekly, week 3, 90 min): 348 mg/dL; plasma glucose, OGTT (db/db mice; 12.5 mg/kg twice weekly, week 3, 120 min): 329 mg/dL; area under the curve (AUC) of OGTT glucose values compared to saline (in words) (db/db mice; 25 mg/kg): significantly reduced the AUC; glucose tolerance (in words) (db/db mice; 6.25 to 25 mg/kg): dose-dependent improvement in glucose tolerance; glucose tolerance (in words) (ob/ob mice; OGTT): improved glucose tolerance"
